Results: PubChem BioAssay AID248 (DTP/NCI, 2004)
Several values for one entry are separate records, joined by “and”; a condition that tells them apart may be missing. Identical values can stand only once. Toxic doses and inconclusive results are not listed. Rule as the data show it: active = T/C of 150% or more; inactive = T/C below 125%.

Tested on: L1210 leukemia ip in BDF1 mice, survival T/C
Assay: NCI In Vivo Anticancer Drug Screen. Data for tumor model L1210 Leukemia (intraperitoneal) in B6D2F1 (BDF1) mice
Details: endpoint: mean survival time, higher = longer survival
How it was run: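 Read-out is survival time, reported as the treated-group measurement over the vehicle-control measurement.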

[1] = dose: 50.0 mg/kg/injection, schedule: Q01DX009 (ip), vehicle: saline with Tween-80
[2] = dose: 100.0 mg/kg/injection, schedule: Q04DX002 (ip), vehicle: saline with Tween-80
[3] = dose: 100.0 mg/kg/injection, schedule: Q04DX003 (ip), vehicle: saline with Tween-80
[4] = dose: 200.0 mg/kg/injection, schedule: Q04DX002 (ip), vehicle: saline with Tween-80
[5] = dose: 200.0 mg/kg/injection, schedule: Q04DX003 (ip), vehicle: saline with Tween-80
[6] = dose: 400.0 mg/kg/injection, schedule: Q01DX009 (ip), vehicle: saline with Tween-80
[7] = dose: 400.0 mg/kg/injection, schedule: Q04DX002 (ip), vehicle: saline with Tween-80
[8] = dose: 100.0 mg/kg/injection, schedule: Q04DX003 (ip), vehicle: Klucel (hydroxypropylcellulose) (HPC)
[9] = dose: 200.0 mg/kg/injection, schedule: Q04DX003 (ip), vehicle: Klucel (hydroxypropylcellulose) (HPC)
[10] = dose: 100.0 mg/kg/injection, schedule: Q01DX001 (ip), vehicle: saline
[11] = dose: 200.0 mg/kg/injection, schedule: Q01DX001 (ip), vehicle: saline
[12] = dose: 400.0 mg/kg/injection, schedule: Q01DX001 (ip), vehicle: saline
[13] = dose: 75.0 mg/kg/injection, schedule: Q01DX001 (ip), vehicle: saline
[14] = dose: 400.0 mg/kg/injection, schedule: Q04DX003 (ip), vehicle: Klucel (hydroxypropylcellulose) (HPC)
[15] = dose: 100.0 mg/kg/injection, schedule: Q01DX009 (ip), vehicle: Klucel (hydroxypropylcellulose) (HPC)
[16] = dose: 100.0 mg/kg/injection, schedule: Q01DX009 (ip), vehicle: saline with Tween-80
[17] = dose: 200.0 mg/kg/injection, schedule: Q01DX009 (ip), vehicle: saline with Tween-80
[18] = dose: 100.0 mg/kg/injection, schedule: Q01DX001 (ip), vehicle: carboxymethylcellulose (CMC)

Measured: T/C

O=C(/C=C/c1ccccc1)NC(=S)Nc1ccc(CCO)cc1
inactive: [1] 97 % of control and 111 % of control | dose: 100.0 mg/kg/injection, schedule: Q01DX001 (ip), vehicle: saline with Tween-80 100 % of control | [2] 96 % of control and 97 % of control | [3] 102 % of control | dose: 200.0 mg/kg/injection, schedule: Q01DX001 (ip), vehicle: saline with Tween-80 88 % of control | [4] 96 % of control and 101 % of control | [5] 100 % of control | dose: 400.0 mg/kg/injection, schedule: Q01DX001 (ip), vehicle: saline with Tween-80 90 % of control | [6] 93 % of control and 95 % of control | [7] 104 % of control | dose: 400.0 mg/kg/injection, schedule: Q04DX003 (ip), vehicle: saline with Tween-80 87 % of control

O=C(O)C1(O)C(Cl)(Cl)C(Cl)=C(Cl)C1(Cl)Cl
inactive: dose: 50.0 mg/kg/injection, schedule: Q01DX009 (ip), vehicle: saline sonified 103 % of control | dose: 50.0 mg/kg/injection, schedule: Q04DX003 (ip), vehicle: Klucel (hydroxypropylcellulose) (HPC) 92 % of control | dose: 100.0 mg/kg/injection, schedule: Q01DX009 (ip), vehicle: saline sonified 105 % of control | [8] 97 % of control and 100 % of control | [9] 111 % of control

CCOC(=O)C(CCc1c[nH]c(=O)[nH]c1=O)(NC(C)=O)C(=O)OCC
inactive: dose: 50.0 mg/kg/injection, schedule: Q04DX002 (ip), vehicle: saline 102 % of control | dose: 100.0 mg/kg/injection, schedule: Q04DX002 (ip), vehicle: saline 122 % of control | dose: 200.0 mg/kg/injection, schedule: Q04DX002 (ip), vehicle: saline 102 % of control | dose: 400.0 mg/kg/injection, schedule: Q04DX002 (ip), vehicle: saline 104 % of control

CCN(CC)CCOC(=O)c1[nH]cnc1N
inactive: [10] 96 % of control | [11] 104 % of control | [12] 96 % of control

CCOC(=O)NNC(=O)CN
inactive: [13] 104 % of control

Cc1ccc(C(C)C)c(OC(=O)Nc2ccc(S(=O)(=O)N(C)C)cc2)c1
inactive: [10] 103 % of control | [11] 100 % of control | [12] 101 % of control

CCCCCCCCCCCCCCCCSc1ccc2ccccc2c1
inactive: [8] 100 % of control | [9] 96 % of control | [14] 87 % of control

CC1Cc2cccc3cc4c(ccc5ccccc54)c1c23 (stereo unspecified)
inactive: dose: 100.0 mg/kg/injection, schedule: Q01DX001 (ip), vehicle: Klucel (hydroxypropylcellulose) (HPC) 98 % of control and 104 % of control | dose: 200.0 mg/kg/injection, schedule: Q01DX001 (ip), vehicle: Klucel (hydroxypropylcellulose) (HPC) 97 % of control and 103 % of control | dose: 400.0 mg/kg/injection, schedule: Q01DX001 (ip), vehicle: Klucel (hydroxypropylcellulose) (HPC) 95 % of control and 110 % of control

CC(C)CCCC(C)C1CCC2C3CC=C4CC(OC(=O)C(Cl)(Cl)Cl)CCC4(C)C3CCC12C (stereo unspecified)
inactive: dose: 40.0 mg/kg/injection, schedule: Q01DX009 (sc), vehicle: steriod suspending solution 94 % of control | dose: 50.0 mg/kg/injection, schedule: Q04DX003 (sc), vehicle: steriod suspending solution 98 % of control | dose: 75.0 mg/kg/injection, schedule: Q01DX009 (sc), vehicle: steriod suspending solution 101 % of control | dose: 100.0 mg/kg/injection, schedule: Q04DX003 (sc), vehicle: steriod suspending solution 101 % of control | dose: 150.0 mg/kg/injection, schedule: Q01DX009 (sc), vehicle: steriod suspending solution 95 % of control | dose: 200.0 mg/kg/injection, schedule: Q04DX003 (sc), vehicle: steriod suspending solution 108 % of control

Cn1cnc2c3cccnc3ccc21
inactive: [13] 95 % of control | dose: 150.0 mg/kg/injection, schedule: Q01DX001 (ip), vehicle: saline 103 % of control

CC1(C)CC[N+]1(C)C
inactive: dose: 11.0 mg/kg/injection, schedule: Q04DX003 (ip), vehicle: saline 98 % of control and 104 % of control | dose: 12.0 mg/kg/injection, schedule: Q04DX003 (ip), vehicle: saline 96 % of control | dose: 16.0 mg/kg/injection, schedule: Q04DX003 (ip), vehicle: saline 94 % of control and 107 % of control | dose: 25.0 mg/kg/injection, schedule: Q04DX003 (ip), vehicle: saline 94 % of control and 104 % of control | dose: 40.0 mg/kg/injection, schedule: Q04DX003 (ip), vehicle: saline 102 % of control | dose: 50.0 mg/kg/injection, schedule: Q04DX003 (ip), vehicle: saline 110 % of control | dose: 60.0 mg/kg/injection, schedule: Q04DX003 (ip), vehicle: saline 92 % of control

CCCCCN(CCCCC)CC(O)c1cc2c(c3ccccc13)CCCC2 (stereo unspecified)
inactive: dose: 25.0 mg/kg/injection, schedule: Q01DX009 (ip), vehicle: Klucel (hydroxypropylcellulose) (HPC) 87 % of control | dose: 50.0 mg/kg/injection, schedule: Q01DX009 (ip), vehicle: Klucel (hydroxypropylcellulose) (HPC) 93 % of control | [15] 90 % of control

COC(=O)c1c(Cl)c(Cl)c(Cl)c(Cl)c1C(=O)OC
inactive: [15] 96 % of control | [16] 96 % of control | [8] 95 % of control | [3] 100 % of control | dose: 200.0 mg/kg/injection, schedule: Q01DX009 (ip), vehicle: Klucel (hydroxypropylcellulose) (HPC) 102 % of control | [17] 91 % of control | [9] 96 % of control | [5] 100 % of control | dose: 400.0 mg/kg/injection, schedule: Q01DX009 (ip), vehicle: Klucel (hydroxypropylcellulose) (HPC) 107 % of control | [14] 95 % of control

CNNC(=O)c1ccncc1
inactive: dose: 62.0 mg/kg/injection, schedule: Q01DX015 (ip), vehicle: water 91 % of control | dose: 125.0 mg/kg/injection, schedule: Q01DX015 (ip), vehicle: water 98 % of control

COC(C)(C)CN(CCCNC(=S)Nc1ccccc1)C(=S)Nc1ccccc1
inactive: dose: 50.0 mg/kg/injection, schedule: Q01DX001 (ip), vehicle: carboxymethylcellulose (CMC) 103 % of control | [18] 97 % of control | dose: 200.0 mg/kg/injection, schedule: Q01DX001 (ip), vehicle: carboxymethylcellulose (CMC) 86 % of control | dose: 400.0 mg/kg/injection, schedule: Q01DX001 (ip), vehicle: carboxymethylcellulose (CMC) 93 % of control

COc1cc2c(cc1O)C(=O)CCC(C(=O)O)=C2
inactive: [1] 93 % of control | [16] 107 % of control | [17] 96 % of control

Nc1ncnc2c1cnn2C1OC(CO)C(O)C1O (stereo unspecified)
inactive: dose: 4.1 mg/kg/injection, schedule: Q01DX009 (ip), vehicle: carboxymethylcellulose (CMC) 97 % of control | dose: 6.2 mg/kg/injection, schedule: Q01DX009 (ip), vehicle: carboxymethylcellulose (CMC) 111 % of control | dose: 9.3 mg/kg/injection, schedule: Q01DX009 (ip), vehicle: carboxymethylcellulose (CMC) 124 % of control | dose: 67.5 mg/kg/injection, schedule: Q01DX015 (ip), vehicle: carboxymethylcellulose (CMC) 122 % of control | [18] 111 % of control

CCOC(=O)c1c(O)c(=O)[nH]c2ccccc12
inactive: [16] 97 % of control | [2] 101 % of control | [17] 108 % of control | [4] 118 % of control | [6] 101 % of control | [7] 97 % of control
